Holding throughout (assay type): functional, cell-based
One assay has as its system A549. The experiment in a line: Cytotoxicity against human A549 cells after 72 hrs by MTT assay. The settings on record: A549, 72 h. In general terms: Tetrazolium assays rely on reduction of a dye to a coloured formazan, in cell work by metabolically active cells.
The test system of a further assay is HepG2. The experiment in a line: Cytotoxicity against human HepG2 cells after 72 hrs by MTT assay.
Another assay relates to HeLa. The experiment in a line: Cytotoxicity against human HeLa cells after 72 hrs by MTT assay.
Assay [1] in a line: Cytotoxicity against human LAC cells after 72 hrs by MTT assay.
Where [2] appears, read: Homo sapiens, HepG2, 72 h, read-out: EC50.
Where [3] appears, read: Homo sapiens, LAC, 72 h, read-out: EC50.

Bounds are passed on as bounds.

In the case of `CCS[C@@H]1[C@H](SCC)[C@@H](CO)O[C@H]1n1cc(C(=O)NC)nn1`, the EC50 (in the assay with A549; in the assay with HepG2 (setting [2]); in the assay with HeLa; in assay [1] (setting [3])) was over 100 µM in each case.

Consider `CCS[C@@H]1[C@H](SCC)[C@@H](CO)O[C@H]1n1cc(-c2ccc(OC)cc2)nn1`, for which the EC50 (usually the concentration giving half of the maximal effect) in the assay on A549 is 23.4 µM; in the assay with HepG2 (setting [2]) it was 11 µM; with HeLa it was 5.69 µM; in assay [1] (setting [3]), 14.5 µM.

Take `CCS[C@@H]1[C@H](SCC)[C@@H](CO)O[C@H]1n1cc(-c2ccc(F)cc2)nn1`: the EC50 was 20.2 µM in the assay with A549, 9.62 µM in the assay on HepG2 (setting [2]), 6.92 µM in the assay with HeLa and 16.2 µM in assay [1] (setting [3]).

Regarding `CCS[C@@H]1[C@H](SCC)[C@@H](CO)O[C@H]1n1cc(CO)nn1`, the EC50 (in the assay with A549; in the assay on HepG2 (setting [2]); in the assay with HeLa; in assay [1] (setting [3])) was over 100 µM each time.

Consider `CCS[C@@H]1[C@H](SCC)[C@@H](CO)O[C@H]1n1ccc(=O)[nH]c1=O`, for which the EC50 in the assay on A549 is 87.4 µM; in the assay on HepG2 (setting [2]), 74.7 µM; in the assay on HeLa it was 75.7 µM; in assay [1] (lac) it was “Not Active”.

Regarding `CCS[C@@H]1[C@H](SCC)[C@@H](CO)O[C@H]1n1cc(-c2ccccc2)nn1`, the EC50 in the assay on A549 stood at 44.1 µM; with HepG2 (setting [2]) it was 9.6 µM; in the assay on HeLa it was 11.2 µM; in assay [1] (setting [3]), 20.7 µM.

Turning to `CCS[C@@H]1[C@H](SCC)[C@@H](CO)O[C@H]1n1cc(C)c(=O)[nH]c1=O`, the EC50 was 86.4 µM in the assay on A549, “Not Active” with HepG2 (hepg2), 29.5 µM in the assay on HeLa and “Not Active” in assay [1] (lac).

Take `CCS[C@@H]1[C@H](SCC)[C@@H](CO)O[C@H]1n1cc(Cn2cc(C)c(=O)[nH]c2=O)nn1`: the EC50 (in the assay on A549; in the assay with HepG2 (setting [2]); with HeLa; in assay [1] (setting [3])) was over 100 µM each time.

`CCS[C@@H]1[C@H](SCC)[C@@H](CO)O[C@H]1n1cc(Cn2ccc(N)nc2=O)nn1`: the concentration for a half-maximal effect (EC50) (in the assay on A549; in the assay with HepG2 (setting [2]); in the assay with HeLa; in assay [1] (setting [3])) was over 100 µM each time.

Consider `CCS[C@@H]1[C@H](SCC)[C@@H](CO)O[C@H]1n1ccc(N)nc1=O`, for which the EC50 was 86.4 µM in the assay on A549, 116 µM in the assay with HepG2 (setting [2]), 177 µM in the assay on HeLa and “Not Active” in assay [1] (lac).

As to `O=c1[nH]c(=O)n([C@H]2C[C@H](O)[C@@H](CO)O2)cc1F` [FLOXURIDINE], the EC50 in the assay with A549 worked out at 9.74 µM; in the assay on HepG2 (setting [2]) it was 18.8 µM; in the assay with HeLa, 10.3 µM; in assay [1] (setting [3]) it was 32.1 µM.

The values above are taken from ChEMBL document CHEMBL1153131, “Synthesis and antitumor activity of novel 2',3'-dideoxy-2',3'-diethanethionucleosides bearing 1,2,3-triazole residues” (Bioorg Med Chem Lett, 2010).
